Entries after “also recorded” stand apart in the source; their conditions may differ.

The test system of one assay is N. closterium algae. The settings on record: Li et al. 2009; cited from earlier work.
Another assay has as its system M. Aeruginosa. Nature of the assay: Effective potency duration test in 1 L tap fresh water. Format: cell-based, Microcystis aeruginosa. The settings on record: about 0.05 mg/L; for OD600 after 180 days / OD600 after 15 days of M. aeruginosa growth: 1 L tap fresh water; for OD600 after 15 days of M. aeruginosa growth: unadministered control 0.119; for duration of effectiveness after administration: single administration. The method, then: Both 5,6-dichlorogramine and 5,6,7-trichlorogramine are not only potent M. aeruginosa growth inhibitors, but they are effective inhibitors for a long period of time. In an experiment to test the effective potency duration of the compound, an equal amount of M. aeruginosa was grown in each of two containers, each containing about 1 L of fresh water from an urban sink tap. One container was administered with about 0.05 mg/L of 5,6-dichlorogramine, and the control container was not administered with any compounds. After 15 days of M. aeruginosa growth, the OD600 measurement for the unadministered M. aeruginosa freshwater sample was 0.119. The unadministered M. aeruginosa freshwater sample was discarded after 15 days. In contrast, after 15 days of M. aeruginosa growth, the OD600 measurement for the 5,6-dichlorogramine administered freshwater sample was 0.003. After 180 days, the OD600 measurement for the M. aeruginosa freshwater sample administered with 5,6-dichlorogramine remained at 0.003.
In another experiment, an equal amount of M. aeruginosa was grown in each of two containers, each containing about 1 L of fresh water from an urban sink tap. One container was administered with about 0.05 mg/L of 5,6,7-trichlorogramine, and the control container was not administered with any compounds. After 15 days of M. aeruginosa growth, the OD600 measurement for the unadministered M. aeruginosa freshwater sample was 0.119. The unadministered M. aeruginosa freshwater sample was discarded after 15 days. In contrast, after 15 days of M. aeruginosa growth, the OD600 measurement for the 5,6,7-trichlrogramine administered freshwater sample was 0.003. After 180 days, the OD600 measurement for the M. aeruginosa freshwater sample administered with 5,6,7-trichlorogramine remained at 0.003.

The subject of assay [1] is M. aeruginosa cyanobacteria, isolate strain 2667. Nature of the assay: Petri dish screen of gramine compounds for M. aeruginosa growth inhibition. The settings on record: about 0.5 mg/L compound in BG-11 medium, after 15 days, FIG. 2. Format: cell-based, Microcystis aeruginosa. On the procedure:
The screen tested the compounds on M. aeruginosa cyanobacteria, isolate strain 2667 from Culture Collection of Algae (CCA) at the University of Texas at Austin. For the initial screening test, the twelve compounds were each administered at different concentrations of: 0.5 mg/L, 1.0 mg/L, 2.0 mg/L, 4.0 mg/L, and 8.0 mg/L. The compounds were added to a freshwater culture medium (BG-11 Medium from the CCA, UTEX) in petri dishes. The petri dish plates were then incubated at about 22° C. in a lighted growth chamber with about 16-hr light and about 8-hr dark. M. aeruginosa algae growth in the petri dishes were examined and documented after 15 days of incubation.
M. aeruginosa cells were streaked out on BG-11 medium that contained about 0.5 mg/L of the indicated compound. […] The faint algae smears for petri dishes streaked with 5,6-dichlogramine show the original algae cells that had died in the petri dish. […] The faint algae smears for petri dishes streaked with 5,6,7-trichlogramine show the original algae cells that had died in the petri dish.

As for `CN(C)Cc1c[nH]c2cc(Cl)c(Cl)cc12` [Compound No. 9, 5,6-dichlorogramine], the “inhibition of growth of saltwater N. closterium algae” value in the assay with N. closterium algae is “inhibit the growth”. In the assay on M. Aeruginosa, the “OD600 after 180 days” value is on record as 0.003, the “OD600 after 15 days of M. aeruginosa growth” value was 0.003 and the “duration of effectiveness after administration” value is listed as “at least 180 days”. Also, the “M. aeruginosa growth in petri dishes” value in assay [1] is listed as “no M. aeruginosa growth; also recorded: inhibited M. aeruginosa growth completely”.
As for `CN(C)Cc1c[nH]c2c(Cl)c(Cl)c(Cl)cc12` [Compound No. 12, 5,6,7-trichlorogramine], in the assay with M. Aeruginosa, the “OD600 after 180 days” value turned out to be 0.003, the “OD600 after 15 days of M. aeruginosa growth” value stood at 0.003 and the “duration of effectiveness after administration” value is recorded as “at least 180 days”. For the same compound, the “M. aeruginosa growth in petri dishes” value in assay [1] is reported as “no M. aeruginosa growth; also recorded: inhibited M. aeruginosa growth completely”.

The record behind these values is patent US8945397B2, “Methods of inhibiting cyanobacteria growth by administering gramine derivatives” (priority 2012, dated 2015).
